Data taken from patent publication US7368115B2, “Method of enhancing neural stem cell proliferation, differentiation, and survival using pituitary adenylate cyclase activating polypeptide (PACAP)” (Stem Cell Therapeutics Inc., priority 2002, dated 2008).

How the values were obtained:
[1] = system: adult forebrain subventricular zone (SVZ); experiment: In vivo proliferation in the adult subventricular zone (BrdU+ cells) after infusion into the lateral ventricle; design: species or system CD-1 mice; settings: human PACAP 165 μg/ml by osmotic minipump into right lateral ventricle for 6 days; relative to vehicle infused animals
Excerpt: FIG. 4. PACAP infusion stimulated increased proliferation in the adult subventricular zone (SVZ) in vivo. PACAP was infused into the lateral ventricles for six days with an osmotic minipump, followed by a series of BrdU injections. Brains were processed for immunocytochemistry. PACAP increased proliferation in the adult SVZ. (** p<0.05, n=4). […] To examine the actions of the peptide in vivo, CD-1 mice (6–7 weeks of age) were implanted with osmotic minipumps (Alzet 1007D) filled with either human PACAP (American Peptide Company, 165 μg/ml) or vehicle alone (0.9% saline containing 1 mg/ml mouse serum albumin). The cannulae were placed in the right lateral ventricle. Each animal was infused for 6 days and injected with BrdU every two hours for ten hours and killed 0.5 hours after the last injection. Brains were processed for immunohistochemistry as described previously (Shingo et al., 2001) and BrdU+cells were counted in serial sections of the SVZ.

[2] = system: embryonic rat cortical precursors; settings: Lu and DiCicco-Bloom, 1997; cited from earlier work
[3] = system: E14 ganglionic eminence neural stem cells; experiment: Primary neurosphere number from dissociated E14 ganglionic eminences (neural stem cell survival); assay type: cell-based, mouse
Excerpt: FIG. 1. Pituitary adenylate cyclase-activating polypeptide (PACAP) enhanced neural stem cell survival in vitro. Embryonic day 14 ganglionic eminences (E14 GE) were dissociated and plated at 150 cells/ml in the indicated growth factor conditions. The number of neurospheres was counted after 10 days. Data are expressed relative to the number obtained with epidermal growth factor (EGF) alone (100%). PACAP increased the number of neurospheres obtained with either EGF or fibroblast growth factor (FGF)+heparan sulfate (HS). […] (* p<0.05, n=3).
Cell Culture: Primary embryonic neural stem cells were isolated from E14 ganglionic eminence as previously described (Reynolds and Weiss, 1992). Neurospheres were grown in the presence of EGF (20 ng/ml) or FGF-2 (20 ng/ml)+heparan sulfate (2 μg/ml) growth medium. Passaged neural stem cells were grown at a clonal density (150 cells/ml).
E14 GE were dissociated and plated at 150 cells/ml in EGF, EGF+PACAP, FGF+HS, or FGF+HS+PACAP. The number of neurospheres were counted after 10 days.

primary E14 neurospheres [4] = experiment: Secondary neurosphere number from dissociated primary neurospheres (self-renewal); assay type: cell-based, mouse; settings: primary neurospheres grown with PACAP, replated in EGF or FGF+HS; normalized to growth without PACAP
Protocol: FIG. 2. PACAP increased neural stem cell self-renewal in vitro. Primary E14 neurospheres were grown in the indicated conditions, dissociated, and replated in the presence of either EGF or FGF+HS. Neurospheres were counted and data were normalized to either EGF or FGF+HS alone. PACAP increased the number of secondary neurospheres obtained with either EGF or FGF+HS. (* p<0.05, n=3).
Single Cell Dissociation Assay: Single neurospheres ([…]) were dissociated mechanically and then plated in a 96 well plate and incubated for 10 days in vitro in the presence of growth factors.
Primary E14 neurospheres were grown in the indicated conditions in FIG. 2, then dissociated and replated in the presence of either EGF or FGF+HS and the number of secondary neurospheres was counted. Data were normalized to the numbers of secondary neurospheres generated from primary neurospheres grown in the absence of PACAP.

STAT5 = STAT5 phosphorylation in cultured neural stem cells (Western blot); assay type: cell-based; settings: data not shown
Protocol: (§1) To examine the possible mechanisms of PACAP action on neural stem cells, the effects of PACAP on Akt and STAT5 phosphorylation were investigated. Immunoblots were performed with anti-STAT5 (1:1000, Santa Cruz Biotechnology), anti-phospho-STAT5 (1:1000; Cell Signaling Technology), anti-Akt and anti-phospho-Akt (1:1000; Cell Signaling Technology). […] PACAP also stimulated STAT5 phosphorylation, which was previously shown to be important in neural stem cell neurogenesis. The effects of PACAP on Akt and STAT5 phosphorylation may be critical in mediating actions on neural stem cell survival and neurogenesis.

primary E14 neurospheres [5] = experiment: In vitro neurogenesis: count of β-tubulin immunopositive neurons from neurospheres; assay type: cell-based, mouse
Protocol: FIG. 3. PACAP enhanced in vitro neurogenesis by neural stem cells. Primary E14 neurospheres were grown in the indicated conditions for seven days and then processed for immunocytochemistry to count the number of B-tubulin immunopositive neurons. Data were normalized to either EGF or FGF+HS alone (100%). PACAP increased the number of neurons in all conditions. (* p<0.01, n=3).
Differentiation of Neurospheres: Neurospheres were plated onto poly-L-ornithine coated coverslips in serum-free medium and subjected to immunocytochemistry after 5 days in vitro. The number of β-III tubulin-positive cells were counted.
Primary E14 neurospheres were grown in either EGF or FGF media in the presence or absence of PACAP for seven days, differentiated for five days in vitro in basal media, and then processed for immunocytochemistry to determine the number of β-tubulin immunopositive neurons. Data were normalized to those obtained with either EGF or FGF+HS alone (100%).

Akt = Akt phosphorylation in cultured neural stem cells (Western blot); assay type: cell-based; settings: within 1 to 2 hours, data not shown
Protocol: as §1

[6] = Banks, 1993; cited from earlier work

PACAP: polypeptide hormone that activates adenylate cyclase; native mammalian form is 38 or 27 amino acids; human PACAP from American Peptide Company used in vivo
number of BrdU incorporating cells in the SVZ [1]: significantly increased
mitosis [2]: can decrease mitosis
number of primary neurospheres generated in response to EGF ([3]; EGF+PACAP vs EGF, 150 cells/ml, counted after 10 days, lesser extent than with FGF-2): also increased
number of primary neurospheres generated in response to FGF-2 ([3]; FGF+HS+PACAP vs FGF+HS, 150 cells/ml, counted after 10 days, PACAP added at beginning of culture): significantly increased
neurosphere number with delayed addition of PACAP ([3]; PACAP addition delayed until 5 days in vitro): did not increase
number of secondary neurospheres generated by single primary neurospheres (primary E14 neurospheres [4]): significantly increased
STAT5 phosphorylation (STAT5): stimulated
number of β-tubulin immunopositive neurons generated (primary E14 neurospheres [5]; EGF or FGF media with PACAP for seven days, differentiated five days in vitro, normalized to EGF or FGF+HS alone (100%)): significantly increased
number of neurons generated with delayed PACAP addition (primary E14 neurospheres [5]; PACAP addition delayed until after five days in vitro (PACAP at 5 DIV)): an increase was observed
phosphorylation of Akt (Akt): rapid increase
crossing of the blood-brain-barrier [6]: known to cross the blood-brain-barrier
